Experimental data reported in ChEMBL document CHEMBL1201862, “PubChem BioAssay data set” (2004).
The source made the active and inactive calls.

Legend:
[1] = target: T1, Apoptotic protease-activating factor 1 (Homo sapiens, UniProt O14727); assay: SAR analysis of small molecule inhibitors of Apaf-1 in a Fluorescent assay.; type: functional; conditions: read-out: IC50_Mean
T1 sequence (O14727 whole entry): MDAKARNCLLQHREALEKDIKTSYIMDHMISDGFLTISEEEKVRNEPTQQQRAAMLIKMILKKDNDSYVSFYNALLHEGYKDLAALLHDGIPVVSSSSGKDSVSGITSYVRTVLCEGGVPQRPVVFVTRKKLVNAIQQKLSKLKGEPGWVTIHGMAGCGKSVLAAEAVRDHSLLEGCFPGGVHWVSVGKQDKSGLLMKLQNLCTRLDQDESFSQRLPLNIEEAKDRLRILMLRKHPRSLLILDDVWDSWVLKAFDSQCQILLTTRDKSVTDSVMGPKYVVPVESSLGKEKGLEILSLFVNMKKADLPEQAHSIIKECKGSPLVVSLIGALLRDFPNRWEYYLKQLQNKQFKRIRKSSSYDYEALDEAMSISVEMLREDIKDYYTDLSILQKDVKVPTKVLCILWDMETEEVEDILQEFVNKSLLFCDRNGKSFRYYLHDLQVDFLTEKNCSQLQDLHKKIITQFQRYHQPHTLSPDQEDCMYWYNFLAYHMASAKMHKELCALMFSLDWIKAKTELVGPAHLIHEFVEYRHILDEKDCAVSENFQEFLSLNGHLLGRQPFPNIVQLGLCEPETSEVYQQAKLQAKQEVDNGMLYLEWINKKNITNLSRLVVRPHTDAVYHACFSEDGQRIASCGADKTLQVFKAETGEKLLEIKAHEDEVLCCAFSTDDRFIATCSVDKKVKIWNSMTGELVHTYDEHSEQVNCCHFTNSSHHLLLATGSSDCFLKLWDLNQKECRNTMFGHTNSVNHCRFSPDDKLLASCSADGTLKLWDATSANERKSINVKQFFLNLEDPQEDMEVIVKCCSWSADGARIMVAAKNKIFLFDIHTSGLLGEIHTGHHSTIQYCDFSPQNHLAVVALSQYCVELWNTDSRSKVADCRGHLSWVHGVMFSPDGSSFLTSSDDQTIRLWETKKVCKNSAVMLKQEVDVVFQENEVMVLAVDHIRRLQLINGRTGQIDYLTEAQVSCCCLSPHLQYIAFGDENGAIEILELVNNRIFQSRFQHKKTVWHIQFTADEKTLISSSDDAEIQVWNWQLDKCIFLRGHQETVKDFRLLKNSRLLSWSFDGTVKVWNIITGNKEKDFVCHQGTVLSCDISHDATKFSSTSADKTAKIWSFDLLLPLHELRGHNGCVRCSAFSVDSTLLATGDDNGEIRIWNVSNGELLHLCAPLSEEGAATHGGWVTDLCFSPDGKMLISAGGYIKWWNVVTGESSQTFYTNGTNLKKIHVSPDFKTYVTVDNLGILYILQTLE

[2] = Mcl1-dependent cancer cell viability – HMC-1-8 cells, luminescence, dry powder, selectivity assay for A1 inhibitor project, dose response (AID 504415); type: functional, cell-based; conditions: Homo sapiens
[3] = target: Testis-specific serine/threonine-protein kinase 2 (Homo sapiens, UniProt Q96PF2); type: functional;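 also: part of the Navigating the Kinome panel, target entry STK22B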
[4] = target: T2, Orexin/Hypocretin receptor type 1 (Homo sapiens, UniProt O43613); assay: (§1) Fluorescence-based cell-based high throughput dose response assay for antagonists of the orexin 1 receptor (OX1R; HCRTR1). [Related pubchem assays (depositor defined):AID434989, AID435008, AID463079, AID485270, AID492963, AID492964, AID492965, AID493232, AID504717, AID504718]; type: functional
T2 sequence (O43613 whole entry): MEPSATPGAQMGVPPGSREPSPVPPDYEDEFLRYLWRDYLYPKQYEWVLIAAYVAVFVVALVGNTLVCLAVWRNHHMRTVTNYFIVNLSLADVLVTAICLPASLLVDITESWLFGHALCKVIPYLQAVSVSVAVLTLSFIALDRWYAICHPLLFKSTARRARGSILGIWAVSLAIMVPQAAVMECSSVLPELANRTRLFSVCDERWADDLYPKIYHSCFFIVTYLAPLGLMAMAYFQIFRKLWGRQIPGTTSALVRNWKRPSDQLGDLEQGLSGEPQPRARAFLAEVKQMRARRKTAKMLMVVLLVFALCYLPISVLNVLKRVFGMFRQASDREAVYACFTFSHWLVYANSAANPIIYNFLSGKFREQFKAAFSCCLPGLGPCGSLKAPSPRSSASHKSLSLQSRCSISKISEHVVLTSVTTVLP

Orexin receptor type 2 [5] = target: T3, Orexin receptor type 2 (Homo sapiens, UniProt O43614); assay: Counterscreen assay for antagonists of the orexin 1 receptor (OX1R; HCRTR1): Homogeneous Time Resolved Fluorescence (HTRF)-based cell-based dose response assay for antagonists of the orexin 2 receptor (OX2R; HCRTR2), run by assay provider.; type: functional
CHO-K1 = assay: (§2) Counterscreen for antagonists of the orexin 1 receptor (OX1R; HCRTR1): Homogeneous time resolved fluorescence (HTRF)-based cell-based dose response assay to identify antagonists of the parental CHO-K1 cell line. [Related pubchem assays (depositor defined):AID434989, AID435008, AID463079, AID485270, AID492963, AID492964, AID492965, AID493232, AID504699, AID504701]; type: functional; conditions: Cricetulus griseus
Orexin receptor type 2 [6] = target: T3, Orexin receptor type 2; assay: Counterscreen assay for antagonists of the orexin 1 receptor (OX1R; HCRTR1): Fluorescence-based cell-based dose response assay for antagonists of the orexin 2 receptor (OX2R; HCRTR2), run by assay provider.; type: functional
[7] = as §2, with “Fluorescence-based” for “Homogeneous time resolved fluorescence (HTRF)-based”, “cell-based high throughput” for “cell-based”, “CHO” for “CHO-K1”; type: functional
[8] = target: T2, Orexin/Hypocretin receptor type 1; assay: as §1, with “Homogeneous Time Resolved Fluorescence (HTRF)-based” for “Fluorescence-based”; type: functional
[9] = target: Interleukin-1 receptor-associated kinase 4 (Homo sapiens, UniProt Q9NWZ3); type: functional
[10] = target: Homeodomain-interacting protein kinase 2 (Homo sapiens, UniProt Q9H2X6); type: functional;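 also: measured within a kinome-wide kinase profiling panel, HIPK2 being one panel member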
[11] = target: ALK tyrosine kinase receptor (Homo sapiens, UniProt Q9UM73); type: functional;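 also: ALK tested as one member of a kinase panel screen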
[12] = target: Serine/threonine-protein kinase pim-1 (Homo sapiens, UniProt P11309); type: functional
[13] = target: cAMP-dependent protein kinase catalytic subunit alpha (Homo sapiens, UniProt P17612); type: functional
[14] = target: T4, Glycogen synthase kinase-3 beta (Homo sapiens, UniProt P49841); type: functional;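 as to Ki: value comes from a broad kinome profiling panel, with GSK3B as the panel member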
[15] = target: Cell division cycle 7-related protein kinase (Homo sapiens, UniProt O00311); type: functional;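 also: value obtained from a kinome-wide kinase panel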
[16] = target: Protein disulfide-isomerase (Homo sapiens, UniProt P07237); assay: inhibition of PDI-driven insulin aggregation – biochemical, turbidity, absorbance, cherry-picked samples, dose response (AID 602350); type: functional
[17] = target: T5, Methionyl-tRNA synthetase, putative (Trypanosoma brucei brucei, UniProt Q38C91); type: functional, Trypanosoma brucei brucei strain 927/4 GUTat10.1
T5 sequence (Q38C91 whole entry): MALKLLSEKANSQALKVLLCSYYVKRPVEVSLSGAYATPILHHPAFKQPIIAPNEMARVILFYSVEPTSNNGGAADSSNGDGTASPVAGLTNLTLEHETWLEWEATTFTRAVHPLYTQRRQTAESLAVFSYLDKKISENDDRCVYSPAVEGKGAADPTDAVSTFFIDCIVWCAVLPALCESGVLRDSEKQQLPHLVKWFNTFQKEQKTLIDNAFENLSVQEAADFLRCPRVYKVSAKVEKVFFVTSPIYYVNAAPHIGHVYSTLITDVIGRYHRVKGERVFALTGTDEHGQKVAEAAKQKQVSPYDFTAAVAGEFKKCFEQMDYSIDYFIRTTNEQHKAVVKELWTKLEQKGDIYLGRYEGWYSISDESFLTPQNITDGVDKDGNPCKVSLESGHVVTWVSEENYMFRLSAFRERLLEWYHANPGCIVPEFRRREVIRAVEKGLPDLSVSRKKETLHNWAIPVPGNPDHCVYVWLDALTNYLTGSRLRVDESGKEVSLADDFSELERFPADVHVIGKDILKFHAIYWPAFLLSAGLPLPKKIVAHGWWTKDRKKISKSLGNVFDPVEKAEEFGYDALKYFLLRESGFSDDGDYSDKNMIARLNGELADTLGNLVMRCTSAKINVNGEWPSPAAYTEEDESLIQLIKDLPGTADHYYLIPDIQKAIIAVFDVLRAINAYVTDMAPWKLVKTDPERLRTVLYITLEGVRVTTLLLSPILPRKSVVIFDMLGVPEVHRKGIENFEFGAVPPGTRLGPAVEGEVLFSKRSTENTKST

[18] = Counterscreen for inhibitors of Trypanosoma brucei methionyl tRNA synthetase (MetRS): Luminescence-based cell-based high throughput dose response assay to identify compounds that are cytotoxic to Jurkat human T lymphocyte cells.; type: functional
[19] = target: T5, Methionyl-tRNA synthetase, putative; type: functional, Trypanosoma brucei brucei strain 927/4 GUTat10.1; remark: listed apart in the source
[20] = target: RNA-editing ligase 1, mitochondrial (Trypanosoma brucei brucei, UniProt P86926); assay: inhibition of trypanosome RNA editing ligase – biochemical, fluorescence, Trypanosoma brucei, dose response (AID 1117295); type: functional
[21] = viability loss in HepG2 liver cells – cell-based, ATP luminescence, cherry-pick, set 6, cytotoxicity control, dose response (AID 1053125); type: functional
INS1 = assay: INS-1E survival protection against cytokine death – cell-based, luminescence, retest, dose response (AID 449756); type: functional; conditions: Rattus norvegicus;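 also: cell death triggered by IL-1 beta plus TNF-alpha plus IFN-gamma mixture; protective hits raise ATP signal compared with cytokine alone wells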
[22] = target: T6, High affinity choline transporter 1 (Homo sapiens, UniProt Q9GZV3); assay: human choline transporter potentiators, potency – cell-based, 10-point CRC, membrane potential dye, dose response (AID 602376); type: functional
T6 sequence (Q9GZV3 whole entry): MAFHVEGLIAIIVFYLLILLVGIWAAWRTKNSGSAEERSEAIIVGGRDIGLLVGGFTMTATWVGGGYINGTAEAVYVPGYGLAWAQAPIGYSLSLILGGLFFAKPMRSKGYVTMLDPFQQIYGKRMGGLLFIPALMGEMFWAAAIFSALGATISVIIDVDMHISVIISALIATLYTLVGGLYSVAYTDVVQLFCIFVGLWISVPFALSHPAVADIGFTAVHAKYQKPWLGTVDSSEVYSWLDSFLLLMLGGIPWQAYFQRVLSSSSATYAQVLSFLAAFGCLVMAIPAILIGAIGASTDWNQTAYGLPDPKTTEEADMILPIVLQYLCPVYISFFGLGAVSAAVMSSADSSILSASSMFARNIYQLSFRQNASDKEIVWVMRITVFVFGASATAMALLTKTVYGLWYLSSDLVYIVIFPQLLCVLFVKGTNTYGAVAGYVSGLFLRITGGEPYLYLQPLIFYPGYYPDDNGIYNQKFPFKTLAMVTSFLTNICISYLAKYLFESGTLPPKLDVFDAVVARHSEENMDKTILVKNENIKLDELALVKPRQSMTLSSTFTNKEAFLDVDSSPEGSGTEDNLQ

[23] = Luminescence Cell-Based Dose Retest to Confirm Inhibitors of Cancer Stem Cells. [Related pubchem assays (depositor defined):AID2717, AID2721]; type: functional; conditions: Homo sapiens
[24] = target: T7, Ubiquitin-conjugating enzyme E2 N (Homo sapiens, UniProt P61088); type: functional;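 also: Dose-response confirmation in a TR-FRET assay detecting UBC13-driven polyubiquitin chain formation, inhibition measured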
T7 sequence (P61088 whole entry): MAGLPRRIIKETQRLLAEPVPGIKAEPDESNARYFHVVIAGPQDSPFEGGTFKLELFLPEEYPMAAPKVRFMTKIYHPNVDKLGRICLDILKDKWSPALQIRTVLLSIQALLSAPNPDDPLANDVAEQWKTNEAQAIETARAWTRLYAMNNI

cells [25] = conditions: A549
cells [26] = conditions: HEK293
[27] = target: T4, Glycogen synthase kinase-3 beta; assay: Inhibition of Human GSK-3 beta Activity Measured in Biochemical System Using Microfluidics - 2063-05_Inhibitor_Dose_DryPowder_Activity_Set2. [Related pubchem assays (depositor defined):AID2709]
[28] = target: Cyclin-dependent kinase 5/CDK5 activator 1 (Homo sapiens, UniProt Q00535); assay: human CDK5 activity blockade – biochemical, microfluidic mobility shift, dry powder, selectivity assay for GSK-3 alpha inhibitor project, dose response (AID 588430)
[29] = target: Glycogen synthase kinase-3 alpha (Homo sapiens, UniProt P49840); assay: Inhibition of Human GSK-3 alpha Activity Measured in Biochemical System Using Microfluidics - 2063-06_Inhibitor_Dose_DryPowder_Activity_Set2. [Related pubchem assays (depositor defined):AID2709]
Glycogen synthase kinase-3 alpha, sequence (P49840 whole entry): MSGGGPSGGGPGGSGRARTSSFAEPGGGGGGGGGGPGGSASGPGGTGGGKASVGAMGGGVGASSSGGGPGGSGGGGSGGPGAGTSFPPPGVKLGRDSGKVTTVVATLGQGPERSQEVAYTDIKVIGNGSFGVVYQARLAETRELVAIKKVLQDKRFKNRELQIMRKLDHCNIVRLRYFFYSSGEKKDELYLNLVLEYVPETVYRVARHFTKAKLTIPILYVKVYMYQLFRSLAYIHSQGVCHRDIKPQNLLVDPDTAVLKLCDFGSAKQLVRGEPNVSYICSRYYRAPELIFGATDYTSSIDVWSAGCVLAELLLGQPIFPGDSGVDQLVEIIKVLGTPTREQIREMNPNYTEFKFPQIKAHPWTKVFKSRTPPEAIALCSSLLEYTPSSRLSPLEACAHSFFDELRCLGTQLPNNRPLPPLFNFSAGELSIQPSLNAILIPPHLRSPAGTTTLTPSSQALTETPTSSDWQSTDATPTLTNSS

T3 sequence (O43614 whole entry): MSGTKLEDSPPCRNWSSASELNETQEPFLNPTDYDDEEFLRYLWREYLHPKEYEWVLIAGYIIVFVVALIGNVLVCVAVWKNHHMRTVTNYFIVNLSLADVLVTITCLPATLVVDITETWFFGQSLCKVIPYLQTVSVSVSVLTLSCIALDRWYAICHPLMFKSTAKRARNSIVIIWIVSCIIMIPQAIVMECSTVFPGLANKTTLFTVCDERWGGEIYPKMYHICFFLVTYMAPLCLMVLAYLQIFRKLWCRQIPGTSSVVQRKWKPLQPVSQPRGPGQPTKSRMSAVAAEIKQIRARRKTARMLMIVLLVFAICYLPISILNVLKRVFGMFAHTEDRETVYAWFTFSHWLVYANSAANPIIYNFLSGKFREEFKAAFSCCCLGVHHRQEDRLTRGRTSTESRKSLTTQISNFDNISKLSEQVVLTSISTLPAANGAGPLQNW
T4 sequence (P49841 whole entry): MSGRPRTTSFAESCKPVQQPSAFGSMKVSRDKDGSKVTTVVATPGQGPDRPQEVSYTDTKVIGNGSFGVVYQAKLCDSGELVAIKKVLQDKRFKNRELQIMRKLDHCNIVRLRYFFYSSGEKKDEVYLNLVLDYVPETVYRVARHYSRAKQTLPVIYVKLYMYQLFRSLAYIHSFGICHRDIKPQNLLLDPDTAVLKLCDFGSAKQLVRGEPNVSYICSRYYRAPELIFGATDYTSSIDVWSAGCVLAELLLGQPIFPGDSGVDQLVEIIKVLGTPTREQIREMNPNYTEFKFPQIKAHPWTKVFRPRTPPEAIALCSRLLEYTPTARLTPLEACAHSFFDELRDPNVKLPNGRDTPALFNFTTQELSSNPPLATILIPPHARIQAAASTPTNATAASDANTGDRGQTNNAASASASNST
Serine/threonine-protein kinase pim-1, sequence (P11309 whole entry): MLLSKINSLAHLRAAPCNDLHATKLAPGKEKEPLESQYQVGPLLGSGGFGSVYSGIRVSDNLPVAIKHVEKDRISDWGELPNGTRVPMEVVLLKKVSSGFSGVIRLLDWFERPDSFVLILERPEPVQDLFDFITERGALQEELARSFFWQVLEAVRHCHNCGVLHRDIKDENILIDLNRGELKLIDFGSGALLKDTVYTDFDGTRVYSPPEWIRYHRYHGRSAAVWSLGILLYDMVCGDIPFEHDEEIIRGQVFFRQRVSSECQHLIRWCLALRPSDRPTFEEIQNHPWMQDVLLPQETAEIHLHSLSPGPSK
Cyclin-dependent kinase 5/CDK5 activator 1, sequence (Q00535 whole entry): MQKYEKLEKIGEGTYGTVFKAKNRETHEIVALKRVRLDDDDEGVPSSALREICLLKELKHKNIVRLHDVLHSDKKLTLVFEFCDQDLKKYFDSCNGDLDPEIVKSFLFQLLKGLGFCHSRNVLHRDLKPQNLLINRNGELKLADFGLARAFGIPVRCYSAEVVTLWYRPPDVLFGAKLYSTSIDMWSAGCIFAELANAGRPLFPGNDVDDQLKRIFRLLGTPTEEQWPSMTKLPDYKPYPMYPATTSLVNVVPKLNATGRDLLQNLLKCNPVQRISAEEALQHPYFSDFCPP
Cyclin-dependent kinase 5/CDK5 activator 1, sequence (Q15078 whole entry, further chain): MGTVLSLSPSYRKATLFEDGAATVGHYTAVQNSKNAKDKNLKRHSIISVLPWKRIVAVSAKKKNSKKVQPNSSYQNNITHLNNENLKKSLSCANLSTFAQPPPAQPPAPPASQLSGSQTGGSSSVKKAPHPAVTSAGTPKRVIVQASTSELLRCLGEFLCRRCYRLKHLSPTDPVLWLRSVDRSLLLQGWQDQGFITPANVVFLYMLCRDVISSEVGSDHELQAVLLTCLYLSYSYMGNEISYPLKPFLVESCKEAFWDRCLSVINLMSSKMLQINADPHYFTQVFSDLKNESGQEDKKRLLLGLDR
Protein disulfide-isomerase, sequence (P07237 whole entry): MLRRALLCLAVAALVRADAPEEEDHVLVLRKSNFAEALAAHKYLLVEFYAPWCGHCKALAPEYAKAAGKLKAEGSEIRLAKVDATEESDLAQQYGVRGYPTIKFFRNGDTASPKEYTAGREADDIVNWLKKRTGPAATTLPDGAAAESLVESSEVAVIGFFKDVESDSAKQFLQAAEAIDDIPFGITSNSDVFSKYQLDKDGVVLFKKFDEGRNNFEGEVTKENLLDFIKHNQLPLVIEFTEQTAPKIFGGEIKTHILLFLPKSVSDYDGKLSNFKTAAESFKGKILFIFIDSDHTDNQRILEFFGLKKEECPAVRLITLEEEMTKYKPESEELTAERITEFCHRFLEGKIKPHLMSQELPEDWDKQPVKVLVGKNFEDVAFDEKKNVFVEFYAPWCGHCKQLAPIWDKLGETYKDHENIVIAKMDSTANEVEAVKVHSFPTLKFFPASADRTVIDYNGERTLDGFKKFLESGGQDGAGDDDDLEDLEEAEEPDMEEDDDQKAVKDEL
Cell division cycle 7-related protein kinase, sequence (O00311 whole entry): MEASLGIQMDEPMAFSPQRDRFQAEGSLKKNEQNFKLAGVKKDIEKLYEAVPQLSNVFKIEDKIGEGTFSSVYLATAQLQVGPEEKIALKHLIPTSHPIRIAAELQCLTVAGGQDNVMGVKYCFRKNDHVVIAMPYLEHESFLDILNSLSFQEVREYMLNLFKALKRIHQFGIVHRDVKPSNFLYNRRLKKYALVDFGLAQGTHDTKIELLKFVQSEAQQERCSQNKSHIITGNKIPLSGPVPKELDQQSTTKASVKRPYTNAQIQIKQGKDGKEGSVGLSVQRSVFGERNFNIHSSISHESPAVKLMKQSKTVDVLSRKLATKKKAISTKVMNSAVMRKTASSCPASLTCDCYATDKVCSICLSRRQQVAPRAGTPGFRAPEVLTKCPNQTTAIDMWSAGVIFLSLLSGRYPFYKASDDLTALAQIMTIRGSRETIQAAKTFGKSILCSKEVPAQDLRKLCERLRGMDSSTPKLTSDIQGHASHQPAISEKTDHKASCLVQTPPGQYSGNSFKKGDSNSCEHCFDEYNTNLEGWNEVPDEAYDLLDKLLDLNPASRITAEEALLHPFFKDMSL
Testis-specific serine/threonine-protein kinase 2, sequence (Q96PF2 whole entry): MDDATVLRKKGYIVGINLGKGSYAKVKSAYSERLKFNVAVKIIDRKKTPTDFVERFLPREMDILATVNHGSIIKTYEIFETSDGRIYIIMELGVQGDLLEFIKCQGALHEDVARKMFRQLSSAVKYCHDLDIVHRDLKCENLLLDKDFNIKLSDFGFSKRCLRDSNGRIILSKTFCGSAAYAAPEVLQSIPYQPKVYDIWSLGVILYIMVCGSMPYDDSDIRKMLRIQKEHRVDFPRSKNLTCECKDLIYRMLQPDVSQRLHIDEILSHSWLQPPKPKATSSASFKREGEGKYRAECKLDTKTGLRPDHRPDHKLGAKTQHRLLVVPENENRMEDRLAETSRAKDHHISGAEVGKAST
RNA-editing ligase 1, mitochondrial, sequence (P86926 whole entry): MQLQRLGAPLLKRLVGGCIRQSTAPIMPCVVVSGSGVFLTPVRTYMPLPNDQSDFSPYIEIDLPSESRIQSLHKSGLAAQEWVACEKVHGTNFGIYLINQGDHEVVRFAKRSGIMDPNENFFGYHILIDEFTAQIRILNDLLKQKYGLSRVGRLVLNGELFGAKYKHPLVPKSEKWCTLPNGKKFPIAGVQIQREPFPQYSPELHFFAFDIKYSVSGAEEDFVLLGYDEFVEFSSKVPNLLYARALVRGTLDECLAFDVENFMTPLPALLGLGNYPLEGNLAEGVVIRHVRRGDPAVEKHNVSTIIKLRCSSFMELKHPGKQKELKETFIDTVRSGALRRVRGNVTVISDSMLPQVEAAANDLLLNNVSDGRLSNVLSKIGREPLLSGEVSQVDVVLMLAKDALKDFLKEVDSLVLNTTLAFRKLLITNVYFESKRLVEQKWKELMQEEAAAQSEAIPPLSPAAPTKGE
Interleukin-1 receptor-associated kinase 4, sequence (Q9NWZ3 whole entry): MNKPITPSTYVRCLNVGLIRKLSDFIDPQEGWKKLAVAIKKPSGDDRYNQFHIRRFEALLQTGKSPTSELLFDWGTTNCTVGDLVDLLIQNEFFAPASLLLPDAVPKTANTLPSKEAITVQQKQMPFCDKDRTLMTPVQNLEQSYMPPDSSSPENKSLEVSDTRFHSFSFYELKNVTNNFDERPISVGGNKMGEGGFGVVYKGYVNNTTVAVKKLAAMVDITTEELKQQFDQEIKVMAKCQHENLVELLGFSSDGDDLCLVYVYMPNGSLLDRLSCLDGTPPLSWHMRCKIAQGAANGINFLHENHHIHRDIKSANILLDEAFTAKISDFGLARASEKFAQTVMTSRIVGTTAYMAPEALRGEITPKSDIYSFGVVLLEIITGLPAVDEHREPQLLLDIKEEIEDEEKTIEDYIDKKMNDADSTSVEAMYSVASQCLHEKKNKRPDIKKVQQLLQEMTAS

With `CC(=O)c1ccc(C(=O)Nc2ccc3[nH]c(C)nc3c2)s1` the IC50 [1] was > 100 µM (inactive).
With `Cc1ccc(Sc2c([N+](=O)[O-])cnc3ccccc23)cc1` the AC50 [2] was 22.9 µM (active).
In the case of `CNC(=O)c1cc(Oc2ccc(NC(=O)Nc3ccc(Cl)c(C(F)(F)F)c3)cc2)ccn1` [SORAFENIB], the Ki [3] was > 1.58 µM (inactive).
With `Cc1ccc(-c2cc3nc(-c4ccccc4)cc(N4CCC5(CC4)OCCO5)n3n2)cc1` the IC50 [4] was 17.4 µM (inactive), the IC50 (Orexin receptor type 2 [5]) was > 50 µM (inactive) and the IC50 (CHO-K1) was > 66.2 µM (inactive). For the same molecule, the IC50 (Orexin receptor type 2 [6]) was 24.9 µM (inactive), the IC50 [7] was > 49.7 µM (inactive) and the IC50 [8] was 5.68 µM (active).
In the case of `CN(Cc1ccccc1)c1cc(-c2c[nH]c3ncccc23)cc(Cl)n1`, the Ki [9] was 0.2 µM (active), the Ki [10] was 0.158 µM (active) and the Ki [11] was > 5.01 µM (inactive). The Ki [12] was 0.251 µM (active), the Ki [13] was 0.0398 µM (active) and the Ki [14] was 0.0398 µM (active). The Ki [15] was 0.00794 µM (active).
In the case of `C[C@H]1CN([C@@H](C)CO)C(=O)Cc2cc(NC(=O)Nc3ccccc3)ccc2O[C@H]1CN(C)Cc1ccccc1`, the AC50 [16] was 10.3 µM (active), the IC50 [17] was 21.4 µM (inactive) and the IC50 [18] was 27.8 µM (inactive). The IC50 [19] was 25.1 µM (inactive).
For `COc1ccc(C[C@H]2CN3C(=NC[C@@H]3Cc3ccccc3)N2CCNC(=O)CCC2CCCCC2)cc1`, the IC50 [20] was > 96.6 µM (inactive), the AC50 [21] was 7.94 µM (active) and the AC50 (INS1) was 5.74 µM (active). The EC50 [22] was 22 µM (active), the AC50 [23] was 11.2 µM (active) and the IC50 [24] was > 20 µM (inactive). For the same molecule, the AC50 (cells [25]) was 8.94 µM (active) and the AC50 (cells [26]) was 13.4 µM (active).
In the case of `O/N=C/c1cn(-c2ccccc2)nc1-c1ccc2c(c1)OCCO2`, the AC50 [27] was 0.351 µM (active), the AC50 [28] was 28.4 µM (active) and the AC50 [29] was 0.984 µM (active). For the same molecule, the IC50 [24] was > 20 µM (inactive).
